Tests used:
[1] = tested on: H3K9ac, H3K27ac, H3K4me3 and H3K27me3 on nucleosomes from ESCs; experiment: Single-molecule decoding of nucleosomes from ESCs treated with HDAC inhibitor or p300 inhibitor; format: cell-based, Mouse; settings: for change in H3K4me3 or H3K27me3 on nucleosomes: over the course of treatment (sodium butyrate 6 hours, C646 24 hours); for change in acetylation marks (H3K9ac, H3K27ac) on nucleosomes: sodium butyrate 1 mM 6 hours, C646 35 μM 24 hours, vs DMSO; for change in acetylation marks (H3K9ac, H3K27ac) on nucleosomes / preference of acetylation change for H3K4me3-marked nucleosomes (combination H3K27ac and H3K4me3): FIG. 3D; for preference of acetylation change for H3K4me3-marked nucleosomes (combination H3K27ac and H3K4me3): sodium butyrate 6 hours, C646 24 hours
Description: Applicants treated ESCs with a pan-HDAC inhibitor (sodium butyrate; 6 hours) or with a p300 HAT inhibitor (C646; 24 hours) and probed extracted nucleosomes for H3K9ac, H3K27ac, H3K4me3 and H3K27me3.
(§1) For HDAC inhibition, 6 million ES cells were plated on a 150 cm plate. 0.5M stock solution of Sodium butyrate (Sigma, 303410) was prepared fresh for each experiment, and diluted in cell media to a final concentration of 1 mM. Following 6 hours of treatment (unless otherwise noted in text), cells were collected and washed with PBS. For p300 inhibition, 4 million ES cells were plated on a 150 cm plate. 25 mM stock solution of C646 (Sigma, SML0002) was prepared and diluted in cell media to a final concentration of 35 μM. Cells were treated for 24 hours, then collected and washed with PBS. For EZH2 inhibition, 2.5 million Karpas422 B-cell non-Hodgkin's lymphoma cells were suspended in 10 ml media. A 10 mM stock solution of the EZH2 inhibitor GSK126 (32) was prepared and diluted 1:1000 in cell media. Cells were harvested 3 days following treatment.
10 million cells were collected and washed twice with PBS, then resuspended in 500 μl of Lysis buffer (50 mM Tris-HCl pH 7.5, 150 mM NaCl, 1% Triton® X-100, 0.1% sodium deoxycholate, 5 mM CaCl2), supplemented with protease inhibitors (ThermoFisher Scientific, 78425), phosphatase inhibitors (ThermoFisher Scientific, 78420) and HDAC inhibitors (Sodium butyrate, Sigma 303410). Micrococcal Nuclease (ThermoFisher Scientific, 88216) was added to lysis buffer at a concentration of 1 unit per milliliter. The suspension is incubated at 4° C. for 1 hour to lyse the cells, after which MNase is activated by incubating at 37° C. for 20 min and inactivated by addition of EGTA at a final concentration of 20 mM. Next, Applicants centrifuged the lysate for 10 min at max speed and supernatant was transferred to a new tube. 10% of the lysate was used to extract DNA (QIAGEN PCR purification kit, 28104) and run on 2% agarose gel to verify MNase digestion. 100 μl of the lysate were used for ligation of fluorescent, biotinylated adaptors: sample was diluted 1:1 in ligation reaction mixture containing End-It™ DNA End-Repair Kit (Epicentre, ER0720) and Fast-Link™ DNA Ligation Kit (Epicentre, LK0750H). Ligation buffer (100 μl) contained 20 μl ligase buffer, 5 μl of 10 mM dNTPs, 16 μl of 10 Mm ATP, 8 μl End-It, 8 μl fast-link ligase, 1 μl protease inhibitors, 1 μl phosphatase inhibitors, 2 μl of 50 mM sodium butyrate solution, 8 μl annealed adaptors (see sequences below) and H2O. Following at least two hours of ligation at room temperature, 1.5 ml of PBS (supplemented with inhibitors) was added to the sample. Next, the sample was concentrated on an Amicon ultra-4 centrifugal filter unit with ultracel-100 membrane (Millipore, UFC810024) for 15 minutes, and the Pac1 enzymatic reaction (NEB, R0547S) was performed in order to digest adaptor concatemers (adaptors were designed to form Pac1 restriction site in cases of self-ligation). Following Pac1 digestion, nucleosomes were separated on 10-30% glycerol gradients for 18 hours at 35,000 rpm. Fractions were collected and analyzed on 6% DNA retardation gels (ThermoFisher Scientific, EC6365BOX). Gels were imaged with Typhoon trio+imager (Amersham Biosciences), and fractions containing mono-nucleosomes were combined and concentrated on an Amicon Ultra-0.5 Centrifugal Filter Unit with Ultracel-100 membrane (Millipore, UFC510096). For preparation of biotinylated histones (FIG. 2E), histones were purified from ESCs using acid extraction and TCA precipitation as described previously (89). Histones biotinylation was carried out with EZ-Link Sulfo-NHS-Biotinylation Kit (Thermo Scientific, 21425) according to manufacturer's protocol.

[2] = tested on: acetylation marks in ESCs; experiment: Western blot of acetylation marks in ESCs after HDAC or p300 inhibition; format: cell-based, Mouse; settings: FIG. 12B, corresponds to FIG. 3D
Description: FIG. 12A-12B. […] (A) Scatter plot of the observed overlap of the indicated modification pair versus the overlap expected by chance. Corresponds to the data in FIG. 3A, 3B. […] Corresponds to the data in FIG. 3D.
as §1

[3] = tested on: H3K27me3 on bivalent nucleosomes of Karpas422 lymphoma cells; experiment: Single-molecule decoding of H3K27me3 and H3K4me3 on nucleosomes from EZH2 gain-of-function lymphoma cells treated with EZH2 inhibitor; format: cell-based, human; settings: treatment for 3 days, FIG. 2G
Text: Genomic loci marked by bivalent chromatin in ESCs are frequently deregulated in cancer cells (26). Moreover, the Polycomb and trithorax complexes that catalyze H3K27me3 and H3K4me3 are often mutated in cancer (27, 28). Applicants therefore leveraged the single-molecule platform to investigate these modifications in cancer cells (FIG. 2B, 2C, 10B). First, Applicants examined three cell lines that lack known Polycomb or trithorax mutations: T-cell acute leukemia (DND-41), embryonic kidney (HEK293), and glioblastoma (GSC8). […] Applicants next examined a leukemia line (SKM-1) with a loss-of-function (LOF) mutation of the PRC2 subunit EZH2 (29, 30) (FIG. 2C). Applicants observed a drastic reduction of H3K27me3-marked nucleosomes, consistent with inactivation of this H3K27 methyltransferase. Applicants also examined a lymphoma cell line (Karpas422) with a gain-of-function (GOF) EZH2 mutation that increases its catalytic activity (30). Here Applicants detected H3K27me3 on a very high proportion of nucleosomes (15%). […] Even when controlling for the large fraction of H3K27me3-marked nucleosomes in these cells, the proportion of bivalent nucleosomes is ˜4-fold greater than expected from random overlap. […] This may reflect increased nucleosome turnover and/or preferential demethylation in such regions. […]

Row | Compound | change in H3K4me3 or H3K27me3 on nucleosomes [1] | change in acetylation marks (H3K9ac, H3K27ac) on nucleosomes [1] | preference of acetylation change for H3K4me3-marked nucleosomes (combination H3K27ac and H3K4me3) [1] | acetylation marks by Western blot [2] | loss of H3K27me3 from bivalent nucleosomes [3]
1 | CC1=NN(c2ccc(C(=O)O)cc2)C(=O)/C1=C\c1ccc(-c2cc(C)c(C)cc2[N+](=O)[O-])o1 [C646] | Neither drug altered | opposite affect | H3K4me3-marked nucleosomes were more likely to retain their initial state | decrease in acetylation | 
2 | CC[C@H](C)n1cc(C)c2c(C(=O)NCc3c(C)cc(C)[nH]c3=O)cc(-c3ccc(N4CCNCC4)nc3)cc21 [GSK126] |  |  |  |  | preferential loss of H3K27me3 from bivalent nucleosomes
3 | CCCC(=O)[O-].[Na+] [sodium butyrate, Sodium butyrate] | Neither drug altered | significantly increased | increased acetylation preferentially affected H3K4me3-marked nucleosomes | increase in acetylation marks | 
